The target of series [1] is T1, Alzheimer's Aβ (1-40) (Homo sapiens, UniProt P05067).
T1 construct: aggregates to fibrils, Thioflavin T fluorometry
Briefly: Thioflavin T fluorometry assay of Aβ (1-40) amyloid fibril formation over 1 week. Type of series: biochemical. The note with it: 1 hour to 1 week, 25 μM Aβ (1-40). From the text: A previously described method of measuring amyloid fibril formation utilizing Thioflavin T fluorometry (H Naiki et al, Lab. Invest. 65:104-110, 1991; H Levine III, Protein Sci. 2:404-410, 1993; H Levine III, Amyloid: Int. J. Exp. Clin. Invest. 2:1-6, 1995; H Naiki and K. Nakakuki, Lab. Invest. 74:374-383,1996) was employed initially to identify potential therapeutic compounds capable of inhibiting Alzheimer's Aβ amyloid fibril formation. Using this sensitive assay, any decreases or increases in fluorescence was previously shown to correlate with a decrease or increase in the amount of amyloid fibrils (H Naiki et al, Lab. Invest. 65:104-110, 1991; H Levine III, Protein Sci. 2:404-410, 1993; H Levine III, Amyloid: Int. J. Exp. Clin. Invest. 2:1-6, 1995; H Naiki and K. Nakakuki, Lab. Invest. 74:374-383, 1996), allowing one to determine the identification and extent of potential inhibitors and/or enhancers of amyloid fibril formation.
In one study, the effects of various compounds on Alzheimer's Aβ (1-40) fibril formation was assessed by Thioflavin T fluorometry. Thioflavin T is known to bind to fibrillar amyloid proteins, and an increase in fluorescence correlates with an increase in amyloid fibril formation, whereas a decrease in fluorescence correlates with a decrease in amyloid fibril formation. The Alzheimer's Aβ protein (1-40) when incubated at 37° C. tends to spontaneously form amyloid fibrils which increase in quantity over time. […]
To assess the effects of each compound on Aβ (1-40) fibril formation, 50 μl aliquots were taken from each tube for analysis at 1 hr, 1 day, 3 days, and 1 week. […] Fluorescence emission at 482 nm was measured on a Turner instrument-model 450 fluorometer at an excitation wavelength of 450 nm. For each determination,the fluorometer was calibrated by zeroing in the presence of the Thioflavin T reagent alone, and by setting the 50 ng/ml riboflavin (Sigma Chemical Co., St. Louis, Mo.) in the Thioflavin T reagent to 1800 fluorescence units. […]

The test system of series [2] is Aβ (1-40). The experiment in a line: Solid phase binding assay of Aβ--Aβ interactions (amyloid fibril growth). The conditions noted are these: FIG. 3; 1.25 mM of test compounds. From the text: In Alzheimer's disease and other amyloidoses, amyloid fibril growth is believed to involve amyloid protein self-interactions (ie. Aβ--Aβ interactions). Any potential effective therapeutic agent for amyloid deposition, accumulation and/or persistence should also be capable of causing an inhibition of amyloid protein self-interactions. This is important for preventing any new amyloid fibril formation when treating Azheimer's disease patients at early stages of the disease. ELISA methodologies (i.e. solid phase binding assays) were therefore used to identify compounds which were capable of inhibiting Aβ--Aβ interactions (i.e. Alzheimer's amyloid fibril growth).
Aβ (1-40) was first labelled with biotin according to the following protocol. 1 mg of Aβ (1-40) (Bachem Inc., Torrance, Calif., USA; Lot #WL934) was dissolved in 200 μl of PBS (pH 8.0) and incubated for 1 week at 37° C. […] The amount of biotin incorporated was then determined using the HABA (2-(4'-hydroxyazo-benzene)benzoic acid) method (according to the manufacturer's protocol; Pierce).
2 μg of unlabelled Aβ in 40 μl of Tris-buffered saline containing 100 mM Tris-HCl, 50 mM NaCl, 3 mM NaN3, pH 7.0 (TBS) was allowed to bind overnight at 4° C. to microtiter wells (Nunc plates, Maxisorb). […] The reaction was stopped with 50 μl of 4N H2 SO4 and read on a Model 450 microplate reader (Biorad, Hercules, Calif., USA) at 490 nm. […]

Series [3] concerns Alzheimer's disease patients. The conditions noted are these: literature; cited from earlier work.
The mark [4] stands for this setting: Example 1, FIG. 1, 1.25 mM test compound (PTI-00700 at 1:227 dilution).

Counter-ions that a name gives are not always drawn.

T1 sequence (P05067 672-711): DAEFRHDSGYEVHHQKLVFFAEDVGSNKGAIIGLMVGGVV

As for `N[C@H]1C(O)O[C@H](CO)[C@@H](O)[C@@H]1O` (some centres unmarked) [PTI-00712, glucosamine], in series [1] (Example 2, FIG. 2, 1.25 mM test compound), the “effect on Aβ (1-40) amyloid fibril formation” value (shortened to “effect on Aβ”) was “no inhibitory effect”.
Regarding `N[C@H]1C(O)O[C@H](CO)[C@@H](O)[C@@H]1O` (some centres unmarked) [PTI-00800, glucosamine], in series [1] (setting [4]), the “effect on Aβ” value is on record as “did not significantly inhibit”. Besides, the “effect on amyloid fibril growth / Aβ--Aβ interactions” value in series [2] is “no inhibitory effects”.
On to `Nc1c2c(nc3ccccc13)CCCC2` [Tacrine hydrochloride], for which, in series [3], the “cognitive improvement in Alzheimer's disease patients” value is “limited success” and the side effects entry is given as “liver toxicity”.
On to `COc1cc2c(cc1OC)C(=O)C(CC1CCN(Cc3ccccc3)CC1)C2` (centres unmarked) [donepezil], for which, in series [3], the “cognitive improvement in Alzheimer's disease patients” value is given as “slight cognitive improvement”.
`N[C@H]1C(O)O[C@H](CO)[C@@H](O)[C@@H]1O` (some centres unmarked) [PTI-00900, glucosamine]: in series [1] (setting [4]), the “effect on Aβ” value is given as “did not significantly inhibit”. Also, the “effect on amyloid fibril growth / Aβ--Aβ interactions” value in series [2] was “no inhibitory effects”.

The values above are taken from patent publication US6264994A, “Compositions for treating alzheimer's disease and other amyloidoses” (priority 1998, dated 2001).
